Structures can show the parent of a compound that is named as a salt.
Legend:
Assay type in all cases: cell-based
influenza virus = tested on: influenza virus
[1] = tested on: serine proteases (TMPRSS4, TMPRSS11D, TMPRSS2, and DESC1); assay: Protein levels of serine proteases in human lung airway chips; conditions: 10 μM versus vehicle
Excerpt: Protein levels of chips treated with nafamostat mesylate are relative to chips not treated with nafamostat mesylate.

[2] = tested on: influenza virus protein hemagglutinin 0 (HA0)
[3] = tested on: serine proteases (TMPRSS4, TMPRSS11D, TMPRSS2, and DESC1); assay: mRNA levels of serine proteases in human lung airway chips; conditions: 10 μM versus vehicle

Compound | therapeutic window (influenza virus) | effect on protein expression of serine proteases [1] | effect on the cleavage of HA0 [2] | effect on mRNA expression of serine proteases [3]
CCOC(=O)C1=C[C@@H](OC(CC)CC)[C@H](NC(C)=O)[C@@H](N)C1 [oseltamivir] | approximately 48 hours |  |  | 
N=C(N)c1ccc2cc(OC(=O)c3ccc(N=C(N)N)cc3)ccc2c1 [nafamostat mesylate] |  | no effect | efficiently block | no effect

Source: patent publication US20220193021A1 (priority 2019, published 2022)
